Entries after “also recorded” stand apart in the source; their conditions may differ.
Columns and labels:
HMGB1 release = HMGB1 release in vitro by inflammatory mediators (data not shown); format: cell-based
SAA = experiment: SAA-induced HMGB1 release in macrophages (Western blotting); format: cell-based; details: in vitro
Experimental: FIG. 5A-5C. Epitope mapping of SAA-specific antibodies using a peptide library. A, Sequence of synthetic SAA peptides (SEQ ID NO:19). […] Macrophages were stimulated with SAA in the absence or presence of different (R1, R2, R3) IgGs, and HMGB1 release was assayed by Western blotting. C, Epitope mapping by dot blot. Note that all rabbit IgGs capable of protecting against lethal endotoxemia cross-reacted with P8 peptide.
Epitope mapping of SAA-neutralizing antibodies. To test the possibility that antibodies or peptides antagonists targeting different SAA domains may divergently affect the outcomes of LSI, SAA-specific antibodies were generated, and the epitopes of these polyclonal IgGs determined using a peptide library (18-mer offset by 6) spanning the entire SAA protein (FIG. 5A). […] Following repetitive immunizations, the titers of anti-SAA IgGs were dramatically elevated in most rabbits (e.g., R1 and R3).

IL-6: inflammatory mediator, sepsis surrogate marker
induction of HMGB1 release in vitro (HMGB1 release): unable to induce HMGB1 release

RSFFSFLGEAFDGARDMW (listed as Homo sapiens) [Clone P4, SAA peptide corresponding to residues 1-18]
inhibition of SAA-induced HMGB1 release (SAA): dose-dependently inhibited; also recorded: inhibited SAA-induced HMGB1 release

EGF: cytoprotective peptide (NSDSECPLSHDGYCLHDGVCMYIEALDKYACNCVVGYIGERCQYRDLKWWELR; Epidermal growth factor; UniProt P01133 971-1023, looked up)
induction of HMGB1 release in vitro (HMGB1 release): unable to induce HMGB1 release

IL-8: inflammatory mediator, sepsis surrogate marker
induction of HMGB1 release in vitro (HMGB1 release): unable to induce HMGB1 release

REANYIGSDKYFHARGNY (listed as Homo sapiens) [Clone P8, SAA peptide (18-mer) corresponding to residues 25-42]
effect of pre-incubation with peptide on anti-SAA-IgG-mediated inhibition of SAA-induced HMGB1 release (SAA): impaired | inhibition of SAA-induced HMGB1 release (SAA): dose-dependently inhibited
